Measured values reported in patent US5852008A, “Heteroatom substituted benzoyl derivatives that enhance synaptic response mediated by receptors” (The Regents of the University of California, priority 1995, dated 1998).
Entries after “also recorded” stand apart in the source; their conditions may differ.

Tests used:
[1] = tested on: AMPA receptors; experiment: Field EPSP in rat hippocampal slices (field CA1): amplitude and area of AMPA receptor-mediated synaptic responses; format: cell-based, rat (Sprague-Dawley)
Protocol: The physiological effects of invention compounds can be tested in vitro with slices of rat hippocampus as follows. Excitatory responses (field EPSPs) are measured in hippocampal slices which are maintained in a recording chamber continuously perfused with artificial cerebrospinal fluid (ACSF).
To conduct these tests, the hippocampus was removed from anesthetized, 2 month old Sprague-Dawley rats and in vitro slices (400 micrometers thick) were prepared and maintained in an interface chamber at 35° C. using conventional techniques [see, for example, Dunwiddie and Lynch, J. Physiol. Vol. 276: 353-367 (1978)]. The chamber was constantly perfused at 0.5 ml/min with ACSF containing (in mM): NaCl 124, KCl 3, KH2 PO4 1.25, MgSO4 2.5, CaCl2 3.4, NaHCO3 26, glucose 10 and L-ascorbate 2. A bipolar nichrome stimulating electrode was positioned in the dendritic layer (stratum radiatum) of the hippocampal subfield CA1 close to the border of subfield CA3.
Current pulses (0.1 msec) through the stimulating electrode activate a population of the Schaffer-commissural (SC) fibers which arise from neurons in the subdivision CA3 and terminate in synapses on the dendrites of CA1 neurons. Activation of these synapses causes them to release the transmitter glutamate. Glutamate binds to the postsynaptic AMPA receptors which then transiently open an associated ion channel and permit a sodium current to enter the postsynaptic cell. This current results in a voltage in the extracellular space (the field excitatory postsynaptic potential or field "EPSP") which is recorded by a high impedance recording electrode positioned in the middle of the stratum radiatum of CA1.
For the experiments summarized in FIG. 1, the intensity of the stimulation current was adjusted to produce half-maximal EPSPs (typically about 1.5-2.0 mV). Paired stimulation pulses were given every 40 sec with an interpulse interval of 200 msec (see below). The field EPSPs of the second response were digitized and analyzed to determine amplitude, half-width, and response area. If the responses were stable for 15-30 minutes (baseline), test compounds were added to the perfusion lines for a period of about 15 minutes. The perfusion was then changed back to regular ACSF.
Paired-pulse stimulation was used since stimulation of the SC fibers, in part, activates interneurons which generate an inhibitory postsynaptic potential (IPSP) in the pyramidal cells of CA1. This feed forward IPSP typically sets in after the EPSP reaches its peak. It accelerates the repolarization and shortens the decay phase of the EPSP, and thus could partially mask the effects of the test compounds. One of the relevant features of the feed-forward IPSP is that it can not be reactivated for several hundred milliseconds following a stimulation pulse. This phenomenon can be employed to advantage to eliminate IPSP by delivering paired pulses separated by 200 milliseconds and using the second ("primed") response for data analysis.
These effects are mirrored in the field EPSP, as reported in the literature [see, for example, Staubli et al., Psychobiology supra; Xiao et al., Hippocampus supra; Staubli et al., Hippocampus Vol. 2: 49-58 (1992)].
The variables set forth in the table refer to the following generic structure: [drawing 33]

[2] = tested on: long-term potentiation in CA1 field of hippocampal slices; experiment: Promotion of long-term potentiation (LTP) in CA1 field of hippocampal slices; format: cell-based, rat; details: 1.5 mM, theta burst stimulation; vs absence of drug, p<0.02; FIG. 3
Protocol: Long-term potentiation (LTP; a stable increase in the EPSP size of single responses after brief periods of high frequency stimulation) was elicited in the CA1 field of hippocampal slices in the absence (see FIG. 3, stippled bars, N=6) and in the presence of 1.5 mM of Invention Compound I (see FIG. 3, striped bars, N=5). In the latter case, the amount of potentiation was determined after washing out the test compound and comparing the response size with that before test compound infusion. Data presented in FIG. 3 show the percent increase in the EPSP amplitude (mean and S.D.) at 40, 60, and 90 minutes after LTP induction.
For these studies, field EPSPs in slices of hippocampus were elicited by single stimulation pulses and recorded by extracellular electrodes as described in Example II. After collecting responses every 40 seconds for 20-30 minutes to establish a baseline, LTP was induced with ten short bursts of pulses delivered to the CA3 axons; each burst consisted of four pulses separated by 10 milliseconds; the interval between the bursts was 200 milliseconds. This pattern of axon stimulation mimics a discharge rhythm observed in the hippocampus of animals engaged in learning and is referred to as the "theta burst stimulation paradigm" [see, for example, Larson and Lynch in Science Vol. 232: 985-988 (1986)]. […]

[3] = tested on: AMPA receptor; experiment: Monosynaptic EPSP responses in the hippocampus of anesthetized rats after intraperitoneal injection; format: in vivo, rat (male Sprague-Dawley); details: i.p. 120-180 mg/kg
Protocol: The time constant for the decay of the EPSP is a measure for the duration of the response.
In these experiments, male Sprague-Dawley rats were anesthetized with urethane (1.7 g/kg) and body temperature was maintained at 37° C. with the use of a heat lamp. A stimulation electrode (two twisted stainless steel wires, 150 μm diameter, insulated with teflon) was placed stereotaxically in the trajectory of the Schaffer collateral (SC) pathway from CA3 to CA1 of the hippocampus (coordinates relative to Bregma: 3.5 mm P., 3.5 mm L., and 3.0-3.7 mm V). A recording electrode (stainless steel, 150 μm diameter, insulated with teflon) was placed in the ipsilateral CA1 field (coordinates relative to Bregma: 3.8 mm P., 2.9 mm L., and 2.2-2.8 mm V.), 100-200 μm ventral to the electrophysiologically-identified CA1 stratum pyramidale (i.e., in the stratum radiatum).
Decay time constants were determined by single exponential fits to the decay phase of the synaptic response and expressed as a percent of the value obtained during the pre-injection control period.

[4] = tested on: hippocampal electroencephalogram; experiment: Hippocampal electroencephalogram monitoring for electrographic seizures after i.p. injection; format: in vivo, rat (male Sprague-Dawley); details: i.p. 120-180 mg/kg
[5] = peripheral administration in humans; cited from earlier work

Structure (SMILES)	increase in area of the field EPSP ([1]; 100 μM, mean and S.D. of 4 experiments)	increase in response area relative to aniracetam ([1]; 750 μM)	onset and reversibility of effect ([1]; 750 μM, 15 min infusion, washout, FIG. 1)	effect on amplitude, duration (half-width) and area of synaptic response ([1]; 750 μM, 15 min infusion, FIG. 1)	EC50 ([1]; percent increase in field EPSP amplitude, log dose/response, maximal response of 85% increase assumed where solubility was limiting, read-out: EC50 (field EPSP amplitude))	degree of stable long-term potentiation [2]	time to reversal of the increased response duration [3]	effect on duration / decay of synaptic responses ([3]; anesthetized rats, FIG. 4)	blood-brain barrier passage ([3]; inferred from EPSP effect)	electrographic seizures [4]	conversion to anisoyl-GABA [5]
O=C(c1ccc2c(c1)OCCO2)N1CC=CCC1 [Invention Compound I]	46±16%	nine	the effects occur quickly after infusion (horizontal bar) and reverse upon washout; also recorded: rapid onset of action and was fully reversible upon washout	increases the amplitude and duration (measured as half-width) of synaptic responses; also recorded: much larger effect than does aniracetam at twice the concentration; also recorded: the magnitude of the effects was much greater	500 µM	increases the magnitude of long-term potentiation; also recorded: nearly twice as large; also recorded: facilitate induction of maximal long-term potentiation in vitro	60 to 120 min	slows the decay rate of synaptic responses; also recorded: rapid increase in the duration of the synaptic response; also recorded: somewhat larger for the second (primed) response; also recorded: reversibly prolong synaptic responses in the hippocampus	sufficient amounts of the test compound cross the blood-brain barrier	in no case did injections of Invention Compound I produce electrographic seizures	–
COc1ccc(C(=O)N2CCCC2=O)cc1 [aniracetam, N-anisoyl-2-pyrrolidinone]	–	–	–	–	–	–	–	–	–	–	about 80%
